Results: patent publication US10035759B2, “Method of chromatographic separation” (The Procter & Gamble Company, priority 2015, dated 2018)

Test system: human TRPM8
Experiment: TRPM8 FLIPR assay: intracellular Ca2+ level in HEK-293 cells stably transfected with human TRPM8
Assay type: cell-based
Conditions: dose 30 uM
Procedure: TRPM8 activation was determined by measuring intracellular calcium ion (Ca^2+) level from transfected cells with the TRPM8 receptor gene, as described in CELL CULTURE PROTOCOL EXAMPLE, the results of which are shown in TABLES 2 and 3.
To determine what effect, if any, test compounds had on TRPM8 (SEQ ID NO: 1) activation the protocols listed below were used.
TRPM8 Protocol-FLIPR Assay
To determine whether TRPM8 is activated, the intracellular calcium ion (Ca^2+) level was measured from transfected cells with the TRPM8 receptor sequence (SEQ ID NO: 1). HEK-293 (human embryonic kidney) cells stably transfected with human TRPM8 were grown in 15 ml growth medium (high glucose DMEM (Dulbecco's Modification of Eagle's Medium) supplemented with 10% FBS (fetal bovine serum), 100 ug/ml penicillin/streptomycin, 5 μg/ml blasticindin, and 100 μg/ml zeocin) in a 75 cm^2 flask for 3 days at 37° C. in a mammalian cell culture incubator set at 5% CO2. Cells were detached with addition of 2 ml of trypsin-EDTA buffer (GIBCO® 25200, Invitrogen, Grand Island, N.Y.) for about 2-3 min. Trypsin was inactivated by addition of 8 ml growth medium. Cells were transferred to a 50 ml tube and centrifuged at 850 rpm for 3 minutes to remove medium. After centrifugation, a pellet of cells was formed in the bottom of the tube separating them from the supernatant solution. […] Fluo-4 AM is a fluorescent dye used for quantifying cellular Ca^2+ concentrations in the 100 nM to 1 microM range. […]
The pelleted cells were re-suspended in 10 ml assay buffer and 90 al aliquots (˜50,000 cells) per well delivered to a 96-well assay plate containing 10 al of test compounds (1 mM in assay buffer, […]) or buffer control and incubated at room temperature for 30 minutes. After 30 minutes, a plate was placed into a fluorometric imaging plate reader (FLIPR TETRA from Molecular Devices, Sunnyvale, Calif.) and basal fluorescence recorded (excitation wave length 488 nm and emission wave length 510 nm). Then 20 μl of 180 μM solution of TRPM8 agonist WS5 coolant was added to the assay buffer and the fluorescence signals were automatically recorded by FLIPR. For determining the direct effect of test compounds on TRPM8, fluorescence was measured immediately after addition of each compound (TABLES 2 and 3). Additional discussion of the FLIPR method can be found in Smart et al., Characterization using FLIPR of human vanilloid VR1 receptor pharmacology, European Journal of Pharmacology 417, 51-58 (2001) and Liu et al., Development and validation of a platelet calcium flux assay using a fluorescent imaging plate reader, Analytical Biochemistry 357, 216-224 (2006).

CCOC(=O)CNC(=O)C1CC(C)CCC1C(C)C (stereo not shown) [WS-5, N-ethoxycarbonylmethyl-ρ-menthan-3-carboxamide]
100.0%: 50 sec % of WS5 (50 sec) | 3 min % of WS5 (3 min) | 5 min % of WS5 (5 min) | 10 min % of WS5 (10 min)
